Assay results taken from patent US10869904B2, “Pharmaceutical composition for preventing or treating respiratory disease comprising extract of Justicia procumbens L” (DONG WHA PHARM. CO., LTD., priority 2016, dated 2020).
Read-outs that look alike come from different tables or passages of the source. Marks after values point to notes of the source that are not given here.

Experiments:
[1] = system: ICR mice; experiment: Test for evaluation of expectorant activity (phenol red in trachea); type: in vivo; settings: 200 mg/kg, oral, male ICR mice
Procedure: In order to evaluate the expectorant activities of the water and ethanol extracts of Justicia procumbens L., prepared in Preparation Examples 1-1 to 1-2, a test for evaluation of expectorant activity was performed using male ICR mice (weighed 30 to 33 g; Orientbio). Specifically, the extracts and the comparative drug ambroxol (200 mg/kg, Boehringer Ingelheim) were administered orally to the respective groups of mice that fasted the previous day. […] The isolated trachea was freeze-stored in 1 ml of physiological saline for 24 hours. Next, the trachea was sonicated, and 1N NaOH was added to the supernatant (0.1 ml of 1N NaOH per ml of the supernatant). Then, the absorbance at 546 nm was measured and the expectorant activity was measured with the concentration of phenol red.

[2] = system: splenocytes; experiment: Inhibition of Concanavalin A-induced splenocyte proliferation (CCK8); type: cell-based, Balb/c mice; settings: Mus musculus, Splenocyte
Procedure: (§1) The isolated splenocytes were diluted in RPMI medium (containing 10% fetal bovine serum (FBS) and antibiotics (100 U/mL penicillin and 100 μg/mL streptomycin)) at a concentration of 5×10^6 cells/nit, and the cell dilution was dispended in a 24-well plate in an amount of 500 μl/well and in a 96-well plate in an amount of 100 μl/well. The plates were incubated in a 5% CO2 incubator at 37° C. for 48 hours. […] The medium of the 24-well plate was used to measure the degree of secretion of Th2 inflammatory cytokines (IL4 and IL5), and the 96-well plate was used to measure the degree of cell proliferation. First, in order to measure Th2 cytokines, the medium in the 24-well plate was collected and centrifuged at 800×g for 5 minutes, and the supernatant was collected. 100 μl of the supernatant per well was used in IL4 or IL5 enzyme-linked immunosorbent assay (ELISA, Komabiotech Inc.) to measure the degree of secretion of these cytokines. In order to measure the degree of cell proliferation, […] of CCK8 (cell counting kit 8, Donjindo) solution was added to each well of the 96-well plate, and after 4 hours, the absorbance value was measured. The degree of inhibition of spleen cell proliferation by each drug and the degree of inhibition of Th2 cytokine secretion by each drug were calculated using Equation 2 below. For drug synergistic effects, a linear equation was constructed using the concentrations of drugs administered alone as x-coordinates and using drug concentration-dependent inhibition as y-coordinates. Using this linear equation, the concentrations of drugs administered alone, which correspond to inhibition achieved when administered in combination, were calculated, and combination index (CI) was calculated using Equation 3 below. A CI value of less than 1 indicates a synergistic effect, a CI value of 1 indicates an additive effect, and a CI value of more than 1 indicates an antagonistic effect (Liang Zhao et. al., Clinical Cancer Research, 10, 7994-8004, 2004). […]

[3] = system: IL4; experiment: Inhibition of IL4 secretion by Concanavalin A-treated splenocytes (ELISA); type: cell-based, Balb/c mice
Procedure: as §1

[4] = system: IL5; experiment: Inhibition of IL5 secretion by Concanavalin A-treated splenocytes (ELISA); type: cell-based, Balb/c mice
Procedure: as §1

[5] = system: Neutrophilic Asthma Balb/c Mouse Models; experiment: Asthma inhibitory effect in neutrophilic asthma model (ovalbumin + LPS): lung lavage fluid and lung tissue; type: in vivo, Balb/c mice; settings: 1 mg/kg, oral
Procedure: On 0 and 7 days after 1 week of acclimation, each of the mice was systematically sensitized by intranasally administering 75 μg of ovalbumin and 10 μg of lipopolysaccharide (LPS). 20, 50 or 100 mg/kg of the Justicia procumbens L. prepared in Preparation Example 3 or a positive control (10 mg/kg of dexamethasone and 1 mg/kg of montelukast) was administered orally to the mice On days 14, 15, 21, 22, 28, 29, 35, 36 and 37. One hour after administration, 50 μg of ovalbumin was administered intranasally to the mice. 24 hours after final sensitization (day 37), lung lavage fluid was obtained through tracheostomy, and the lung tissue was isolated. The collected lung lavage fluid was centrifuged at 3000 rpm […], and the supernatant was used to measure physiologically active substances (IL-4, IL-5, and IFN-γ), and the pellets were used to measure the number of inflammatory cells. The physiologically active substances (interleukin-4 (IL-4), interleukin-5 (IL-5), and interferon-gamma (IFN-γ)) in the isolated lung lavage fluid were measured using an enzyme-linked immunosorbent assay (ELISA, IL-4: Komabiotech #K0331144, IL-5: R&D system #M5000, IFN-γ: Komabiotech #K0331138) corresponding to each substance. In addition, the lung lavage fluid pellets were re-dissolved in 0.5 mL of phosphate buffered saline, and 0.1 mL of the solution was added to each well of a 96-well plate and centrifuged at 800 rpm for 5 minutes to attach the cells to the bottom (3 wells per sample). Then, each sample was stained with Diff Quik staining solution (Sysmex), and photographed with a microscope at 2-6 random sites. About 200 cells per sample were counted and the percentage (%) of inflammatory cells of each sample was calculated. The total number of inflammatory cells was measured with a microscope using a hematocytometer, and the number of eosinophils and the number of neutrophils were calculated using the percentage (%) of inflammatory cells of each sample. Staining of the lung tissue was performed in the same manner as described in Example 5 above. Statistical processing was performed using an SPSS program, and a Levene test was performed for a test for equal variance, and significance was tested by one-way analysis (ANOVA).

[6] = Table 8, Concentration (mM) 0.2

Nc1c(Br)cc(Br)cc1CN[C@H]1CC[C@H](O)CC1 [Ambroxol, ambroxol]
Expectoration (%, n = 4, Mean ± SE) [1]: 11.4 ± 12.89%

C[C@@H]1C[C@H]2[C@@H]3CCC4=CC(=O)C=C[C@]4(C)[C@@]3(F)[C@@H](O)C[C@]2(C)[C@@]1(O)C(=O)CO [Dexamethasone, dexamethasone]
inhibition at 0.5 µM ([2]; Table 4, 0.5 μM, read-out: Inhibition of splenocyte proliferation (n = 3, Mean ± SD)): 110.3 ± 0.62% | inhibition at 0.5 µM ([2]; Table 5, 0.5 μM, read-out: Inhibition of splenocyte proliferation (%, n = 3, Mean ± SD)): 118.7 ± 0.21% | inhibition at 0.2 µM ([2]; Table 6, 0.2 μM, read-out: Inhibition of splenocyte proliferation (%, n = 3, Mean ± SD)): 94.1 ± 1.8% | inhibition at 0.5 µM ([3]; Mus musculus, Splenocyte, Table 7, 0.5 μM, read-out: Inhibition of IL4 secretion (%, n = 2, Mean ± SD)): 100% | Inhibition of IL4 secretion (%, n = 2, Mean ± SD) [3, 6]: 97.8 ± 0.00% | inhibition at 0.5 µM ([4]; Mus musculus, Splenocyte, Table 7, 0.5 μM, read-out: Inhibition of IL5 secretion (%, n = 2, Mean ± SD)): 103% | Inhibition of IL5 secretion (%, n = 2, Mean ± SD) [4, 6]: 98.9 ± 0.01% | Epithelium thickness (μm), n = 5, Mean ± S.E. [5]: 5.0 ± 0.38##, $$ μm | Lung lavage fluid_IFN-γ (pg/mL), n = 5, Mean ± S.E. [5]: 1.3 ± 0.61##, $$ pg/mL | Lung lavage fluid_IL-4 (pg/mL), n = 5, Mean ± S.E. [5]: 32.1 ± 9.51## pg/mL | Lung lavage fluid_IL-5 (pg/mL), n = 5, Mean ± S.E. [5]: 53.0 ± 13.59##, $$ pg/mL | Lung lavage fluid_eosinophil number (×10^5), n = 5, Mean ± S.E. [5]: 0.1 ± 0.01## ×10^5 | Lung lavage fluid_neutrophil number (×10^5), n = 5, Mean ± S.E. [5]: 0.2 ± 0.02## ×10^5 | Lung lavage fluid_total inflammatory cell number (×10^5), n = 5, Mean ± S.E. [5]: 1.3 ± 0.07## ×10^5 | Subepithelial smooth muscle thickness (μm), n = 5, Mean ± S.E. [5]: 2.7 ± 0.35 μm
